Results as given in patent US8906925B2, “Pyrido[4,3-B]indoles containing rigid moieties” (Medivation Technologies, Inc., priority 2008, dated 2014).
“And” between values parts separate entries of the source, which are not always exact repeats. Identical values can stand only once. Like-named read-outs stand apart in the source and are kept apart here.

Columns and labels:
[1] = tested on: rat central imidazoline I2 receptor; experiment: Central imidazoline I2 radioligand binding ([3H]Idazoxan)
Method: To evaluate in radioligand binding assays the activity of compounds of the invention, rat central imidazoline I2 receptor obtained from Wistar Rat cerebral cortex (Brown, C. M. et al., Br. J. Pharmacol. 99:803, 1990) in a modified Tris-HCl buffer (50 mM Tris-HCl buffer, pH 7.4, 0.5 mM EDTA) was used. Compounds of the invention were incubated with 2 nM [^3H]Idazoxan for 30 min. at 25° C. Non-specific binding was estimated in the presence of 1 μM Idazoxan. Receptor proteins were filtered and washed, the filters were then counted to determine [^3H]Idazoxan specifically bound. Compounds were screened at 1 μM or lower, using 1% DMSO as vehicle. Compounds of the invention were tested in this biochemical assay and percent inhibition of specific binding was determined.

[2] = target: T1, rat adrenergic α1B receptor (Rattus norvegicus, UniProt P15823); experiment: Adrenergic α1B radioligand binding ([3H]Prozosin); details: compound at 1 μM
T1 construct: from tissue; host or cells: Wistar rat liver
T1 sequence (P15823 1-515): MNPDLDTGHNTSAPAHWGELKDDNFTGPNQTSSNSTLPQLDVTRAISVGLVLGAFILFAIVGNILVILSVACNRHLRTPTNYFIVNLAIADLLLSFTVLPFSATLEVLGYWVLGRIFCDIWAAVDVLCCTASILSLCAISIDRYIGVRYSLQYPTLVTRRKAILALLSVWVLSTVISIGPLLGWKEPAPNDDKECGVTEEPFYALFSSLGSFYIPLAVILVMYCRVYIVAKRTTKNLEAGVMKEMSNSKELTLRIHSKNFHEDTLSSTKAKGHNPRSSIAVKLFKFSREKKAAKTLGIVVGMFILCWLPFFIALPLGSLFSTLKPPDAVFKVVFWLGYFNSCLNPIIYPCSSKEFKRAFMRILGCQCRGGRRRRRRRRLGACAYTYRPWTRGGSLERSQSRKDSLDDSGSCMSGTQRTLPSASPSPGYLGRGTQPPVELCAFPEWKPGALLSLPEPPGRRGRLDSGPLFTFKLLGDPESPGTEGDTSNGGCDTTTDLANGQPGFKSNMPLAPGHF
Method: To evaluate in radioligand binding assays the activity of compounds of the invention, rat adrenergic α1B receptor obtained from Wistar Rat liver (Garcia-S'ainz, J. A. et al., Biochem. Biophys. Res. Commun. 186:760, 1992; Michel A. D. et al., Br. J. Pharmacol. 98:883, 1989) in a modified Tris-HCl buffer (50 mM Tris-HCl buffer, pH 7.4, 0.5 mM EDTA) was used. Compounds of the invention were incubated with 0.25 nM [^3H]Prozosin for 60 min. at 25° C. Non-specific binding was estimated in the presence of 10 μM phentolamine. Receptor proteins were filtered and washed, the filters were then counted to determine [^3H]Prozosin specifically bound. Compounds were screened at 1 μM or lower, using 1% DMSO as vehicle. Compounds of the invention were tested in this biochemical assay and percent inhibition of specific binding was determined.

[3] = target: T2, human recombinant adrenergic α2C receptor (Homo sapiens, UniProt P18825); experiment: Adrenergic α2C radioligand binding ([3H]MK-912); details: compound at 1 μM
T2 construct: expressed in transfected cells; host or cells: insect Sf9 cells
T2 sequence (P18825 1-462): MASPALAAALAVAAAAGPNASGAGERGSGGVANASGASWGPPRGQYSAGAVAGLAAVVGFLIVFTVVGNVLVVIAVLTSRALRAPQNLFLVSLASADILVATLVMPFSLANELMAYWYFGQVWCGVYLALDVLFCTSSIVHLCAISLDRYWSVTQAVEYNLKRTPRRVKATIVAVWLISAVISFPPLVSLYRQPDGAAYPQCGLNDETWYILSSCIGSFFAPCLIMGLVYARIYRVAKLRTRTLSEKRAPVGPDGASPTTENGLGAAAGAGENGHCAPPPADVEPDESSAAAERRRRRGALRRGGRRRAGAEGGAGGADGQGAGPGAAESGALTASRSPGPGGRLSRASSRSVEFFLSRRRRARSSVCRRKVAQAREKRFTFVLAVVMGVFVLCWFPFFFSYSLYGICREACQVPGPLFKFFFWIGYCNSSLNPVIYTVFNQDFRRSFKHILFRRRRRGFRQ
Method: To evaluate in radioligand binding assays the activity of compounds of the invention, human recombinant adrenergic α2C receptor expressed in insect Sf9 cells (Uhlen S et al. J Pharmacol Exp Ther. 271:1558, 1994) in a modified Tris-HCl buffer (50 mM Tris-HCl, pH 7.4, 12.5 mM MgCl2, 2 mM EDTA) was used. Compounds of the invention were incubated with 1 nM [^3H]MK-912 for 60 min. at 25° C. Non-specific binding was estimated in the presence of […] WB-4101. Receptor proteins were filtered and washed, the filters were then counted to determine [^3H]MK-912 specifically bound. Compounds were screened at 1 μM or lower, using 1% DMSO as vehicle. Compounds of the invention were tested in this biochemical assay and percent inhibition of specific binding was determined.

[4] = target: T3, human recombinant serotonin (5-Hydroxytryptamine) 5-HT5A receptor (Homo sapiens, UniProt P47898); experiment: Serotonin 5-HT5A radioligand binding ([3H]LSD)
T3 construct: expressed in transfected cells; host or cells: Chinese hamster ovary (CHO-K1) cells
Method: Compounds of the invention are incubated with 1.7 nM [^3H]Lysergic acid diethylamide (LSD) for 60 min. at 37° C. […] Receptor proteins are filtered and washed, the filters are counted to determine [^3H]LSD specifically bound. Compounds are screened at 1 μM or lower, using 1% DMSO as vehicle. Compounds of the invention are tested in this biochemical assay and percent inhibition of specific binding is determined.

[5] = percent inhibition of specific binding, 1 µM
[6] = percent inhibition of specific binding, read-out: Inhibition of ligand binding, Adrenergic α1B
[7] = percent inhibition of specific binding, read-out: Inhibition of ligand binding, Adrenergic α2C
[8] = compound at 1 μM, read-out: Inhibition of ligand binding, Serotonin 5-HT5A (percent inhibition of specific binding)

T3 sequence (P47898 whole entry): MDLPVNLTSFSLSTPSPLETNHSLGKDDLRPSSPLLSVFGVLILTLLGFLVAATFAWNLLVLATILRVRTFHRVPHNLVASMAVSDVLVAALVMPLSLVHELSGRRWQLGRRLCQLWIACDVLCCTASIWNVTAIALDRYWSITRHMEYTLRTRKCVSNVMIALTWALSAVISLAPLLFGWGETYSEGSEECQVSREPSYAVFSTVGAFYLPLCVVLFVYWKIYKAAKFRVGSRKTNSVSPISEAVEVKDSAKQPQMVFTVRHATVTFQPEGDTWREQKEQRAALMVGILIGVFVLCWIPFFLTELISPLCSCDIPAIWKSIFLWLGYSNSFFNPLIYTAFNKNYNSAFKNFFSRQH

SMILES	Imidazoline I2 Central (1 μM), percent inhibition of specific binding ([1]; 1 µM)	Inhibition of ligand binding, Adrenergic α1B [2, 5] [%]	inhibition at 1 µM [2, 6] [%]	Inhibition of ligand binding, Adrenergic α2C [3, 5] [%]	inhibition at 1 µM [3, 7] [%]	inhibition at 0.1 µM ([4]; compound at 0.1 μM, read-out: Inhibition of ligand binding, Serotonin 5-HT5A (percent inhibition of specific binding)) [%]	Inhibition of ligand binding, Serotonin 5-HT5A (percent inhibition of specific binding) ([4]; compound at 1 μM, 1 µM) [%]	inhibition at 1 µM [4, 8] [%]	Imidazoline I2 Central (1 μM), percent inhibition of specific binding [1] [%]	inhibition at 1 µM ([2]; read-out: Inhibition of ligand binding, Adrenergic α1B (percent inhibition of specific binding)) [%]	inhibition at 1 µM ([3]; 1 nM [3H]MK-912, read-out: Inhibition of ligand binding, Adrenergic α2C (percent inhibition of specific binding)) [%]
Cc1ccc(C(O)Cn2c3c(c4cc(C)ccc42)CN(C)CC3)cc1 (racemic) [Compound 43, racemic-2-(1,2,3,4-tetrahydro-2,8-dimethylpyrido[4,3-b]indol-5-yl)-1-p-tolylethanol]	76% and 79%	96	97	94	100	19	73	61			
CCN1CCc2c(c3ccccc3n2CC(O)c2ccc(C)cc2)C1 (racemic) [Compound 44, racemic-2-(2-ethyl-1,2,3,4-tetrahydropyrido[4,3-b]indol-5-yl)-1-p-tolylethanol]			38		35			0	46		
CCN1CCc2c(c3cc(C)ccc3n2CC(O)c2ccc(C)cc2)C1 (racemic) [Compound 51, racemic-2-(2-ethyl-1,2,3,4-tetrahydro-8-methylpyrido[4,3-b]indol-5-yl)-1-p-tolylethanol]			95		92			27	79		
Cc1ccc(C(O)Cn2c3c(c4ccccc42)CN(C)CC3)cc1 (racemic) [Compound 53, racemic-2-(1,2,3,4-tetrahydro-2-methylpyrido[4,3-b]indol-5-yl)-1-p-tolylethanol]			66		82			26	78		
Cc1ccc2[nH]c3c(c2c1)CN(C)CC3 [Compound 3, 2,8-Dimethyl-2,3,4,5-tetrahydro-1H-pyrido[4,3-b]indole]									58		
C/C(=C\n1c2c(c3cc(Cl)ccc31)CN(C)CC2)c1ccc(F)cc1 [Compound 83, (E)-8-chloro-5-(2-(4-fluorophenyl)prop-1-enyl)-2,3,4,5-tetrahydro-2-methyl-1H-pyrido[4,3-b]indole]			96		99			97	85		
Cc1ccc2c(c1)c1c(n2CC#Cc2ccccn2)CCN(C)C1 [Compound No. 500, 2,3,4,5-tetrahydro-2,8-dimethyl-5-(3-(pyridin-2-yl)prop-2-ynyl)-1H-pyrido[4,3-b]indole]								23	54	27	43
